These are literature values, as cited in patent US7947285B2, “Methods for preventing post endoscopic retrograde cholangiopancreatography pancreatitis” (priority 2003, dated 2011).

Series [1] relates to post-ERCP pancreatitis. To be noted: prophylaxis; meta-analysis of 28 clinical trials; cited from earlier work.
Series [2] deals with post-ERCP pancreatitis. Conditions: high-risk patients; two large controlled trials; cited from earlier work.
In series [3] the test system is post-ERCP pancreatitis. Conditions: cited from earlier work.
Series [4] has as its system post-ERCP pancreatitis. To be noted: patients without pancreas divisum; retrospective review; cited from earlier work.

Take `CCOC(=O)c1ccc(OC(=O)CCCCCNC(=N)N)cc1` [gabexate]: the “reducing the frequency of post-ERCP pancreatitis” value in series [1] was “effective”. Besides, in series [2], the “preventing post-ERCP pancreatitis” value is reported as “ineffective”.

Turning to `C[C@@H](O)[C@@H]1NC(=O)[C@H](CCCCN)NC(=O)[C@@H](Cc2c[nH]c3ccccc23)NC(=O)[C@H](Cc2ccccc2)NC(=O)[C@@H](NC(=O)[C@H](N)Cc2ccccc2)CSSC[C@@H](C(=O)N[C@H](CO)[C@@H](C)O)NC1=O` [octreotide], the “preventing post-ERCP pancreatitis” value in series [2] is “ineffective”. Besides, the “effect on clinical course of post-ERCP pancreatitis” value in series [3] (human, in vivo) is recorded as “has not been show to alter the clinical course”. For the same compound, in series [3] (post-ERCP), the effect on hyperamylasemia result is recorded as “reduces hyperamylasemia”.

With secretin, in series [4], the “incidence of post-ERCP pancreatitis” value was “might decrease the incidence”.
